The values below come from ChEMBL document CHEMBL1126355, “The basis for slowly reversible inhibition of dehydroquinate synthase: a case of mistaken identity?” (Bioorg Med Chem Lett, 1992).

Experiment [1] deals with T1, 3-dehydroquinate synthase (Escherichia coli K-12) (UniProt P07639).
T1 sequence (whole entry): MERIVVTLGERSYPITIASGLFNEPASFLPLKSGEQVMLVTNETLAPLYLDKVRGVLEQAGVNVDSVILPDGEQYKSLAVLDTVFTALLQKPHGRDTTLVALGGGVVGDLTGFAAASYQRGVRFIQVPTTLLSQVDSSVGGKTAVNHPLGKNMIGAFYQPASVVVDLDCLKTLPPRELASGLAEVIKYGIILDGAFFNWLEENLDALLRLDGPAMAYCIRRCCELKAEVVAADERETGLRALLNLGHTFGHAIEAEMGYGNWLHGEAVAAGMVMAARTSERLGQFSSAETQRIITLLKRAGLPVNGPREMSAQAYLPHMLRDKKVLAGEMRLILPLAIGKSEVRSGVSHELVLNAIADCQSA
Nature of the experiment: Type of inhibition of 3-dehydroquinate synthase was determined; R - Slowly reversible.

Experiment [2] has as its target T2, 3-dehydroquinate synthase (Escherichia coli K-12, UniProt P07639).
T2 sequence (P07639 whole entry): T1 sequence (whole entry)
Briefly: Inhibition constant against 3-dehydroquinate synthase.

The target in experiment [3] is T1, 3-dehydroquinate synthase (Escherichia coli K-12). Nature of the experiment: […] rate constant against 3-dehydroquinate synthase.
For experiment [4] the target is unchanged. Briefly: Rate constant against 3-dehydroquinate synthase.

Take `O=C(O)C1(O)CCC(O)C(CP(=O)(O)O)C1` (centres undefined): the inhibition result in experiment [1] was “R”.

Turning to `O=C(O)C1(O)CC(O)CC(CP(=O)(O)O)C1` (centres undefined), in experiment [1], the inhibition entry was “R”. Besides, in experiment [2], the Ki worked out at 540 nM. This compound returned a k off in experiment [3] of 0.00054 s⁻¹. For the same compound, the k on in experiment [4] stood at 1000 M⁻¹ s⁻¹.

Consider `O=C(O)C1(O)CC(O)C(O)C(CP(=O)(O)O)C1` (centres undefined), for which the inhibition entry in experiment [1] is “R”. Also, the Ki in experiment [2] amounted to 5.4 nM. Moreover, in experiment [3], the k off amounted to 0.00075 s⁻¹. This compound had a k on in experiment [4] of 140000 M⁻¹ s⁻¹.

Broadly, the Ki is the equilibrium dissociation constant of an inhibitor or competing ligand from its target. High values mean a looser hold on the target, low ones a stronger hold on the target.
